Patent US5773421A, “Antifungal fusacandins” (Abbott Laboratories, priority 1995, dated 1998)
In brackets after ≈: the same amount, converted by molar mass. Read-outs that look alike come from different tables or passages of the source.

How the values were obtained:
Experiment in all cases: MIC by agar dilution method
Format in all cases: cell-based
[1] = system: Candida albicans ATCC 62376
Method: (§1) Minimal inhibitory concentrations (MICs) were determined by an agar dilution method. The test compounds were serially diluted in MeOH and 0.2 mL portions were mixed with 20 mL of molten, cooled Sabouraud dextrose agar (Difco). Yeast cell inoculum was prepared by growing cultures on Sabouraud dextrose agar for 18 hours at 32° C. and suspending the cells in phosphate buffered saline. Filamentous fungi were grown under the same conditions for 4 days to obtain spores. The inoculum level for all cultures was adjusted to 10^4 cells using a Petroff-Hauser cell counter. The glutarimide antifungal compounds cycloheximide or amphotericin B were used as a control. Inoculated test plates were incubated at 32° C. and examined after 20 hours.

[2] = system: Candida albicans CCH 442; conditions: CCH442; Table 6c, 3rd value column (head printed II); III Candida albicans CCH 442; agar dilution; read-out: MIC II
Method: as §1

[3] = system: Candida albicans 579a; conditions: read-out: MIC II
Method: as §1

[4] = system: Candida albicans ATCC 38247
Method: as §1

[5] = system: Candida albicans ATCC 10231
Method: as §1

[6] = ATCC62376, Table 6c, V Candida albicans ATCC 62376, agar dilution, read-out: MIC V
[7] = Table 6c, II Candida albicans 579a, agar dilution
[8] = ATCC38247, Table 6c, IV Candida albicans ATCC 38247, agar dilution, read-out: MIC IV
[9] = ATCC10231, Table 6c, I Candida albicans ATCC 10231, agar dilution, read-out: MIC I

## CCCCC/C=C/C=C/[C@@H](O)C/C=C/C=C/C(=O)O[C@@H]1[C@@H](O)[C@H](c2c(O)cc(O)cc2CO)O[C@H](CO)[C@H]1O[C@@H]1O[C@H](COC(=O)c2ccc3ccc4ccccc4c3c2)[C@H](O)[C@H](O)[C@H]1O[C@@H]1O[C@H](CO)[C@H](O)[C@H](O)[C@H]1O [Example 26]
[1]; Candida albicans, ATCC62376, read-out: MIC V
  MIC: 0.78 µg/mL (≈ 0.724 µM)
[2]
  MIC: 1.56 µg/mL (≈ 1.45 µM)
[3]; Candida albicans, 579A
  MIC: 0.78 µg/mL (≈ 0.724 µM)
[4]; Candida albicans, ATCC38247, read-out: MIC IV
  MIC: 1.56 µg/mL (≈ 1.45 µM)
[5]; Candida albicans, ATCC10231, read-out: MIC I
  MIC: 0.78 µg/mL (≈ 0.724 µM)

## CCCCC/C=C/C=C/[C@@H](O)C/C=C/C=C/C(=O)O[C@@H]1[C@@H](O)[C@H](c2c(O)cc(O)cc2CO)O[C@H](CO)[C@H]1O[C@@H]1O[C@H](COC(=O)/C=C/c2cc(C(C)(C)C)cc(C(C)(C)C)c2)[C@H](O)[C@H](O)[C@H]1O[C@@H]1O[C@H](CO)[C@H](O)[C@H](O)[C@H]1O [Example 17]
[1]; [6]
  MIC: 6.25 µg/mL (≈ 5.6 µM)
[2]
  MIC: 3.12 µg/mL (≈ 2.8 µM)
[3]; [7]
  MIC: 3.12 µg/mL (≈ 2.8 µM)
[4]; [8]
  MIC: 3.12 µg/mL (≈ 2.8 µM)
[5]; [9]
  MIC: 6.25 µg/mL (≈ 5.6 µM)

## CCCCC/C=C/C=C/[C@@H](O)C/C=C/C=C/C(=O)O[C@@H]1[C@@H](O)[C@H](c2c(O)cc(O)cc2CO)O[C@H](CO)[C@H]1O[C@@H]1O[C@H](COC(=O)c2ccc3cc(OCc4ccccc4)ccc3c2)[C@H](O)[C@H](O)[C@H]1O[C@@H]1O[C@H](CO)[C@H](O)[C@H](O)[C@H]1O [Example 24]
[1]; [6]
  MIC: 25 µg/mL (≈ 22.1 µM)
[2]
  MIC: 25 µg/mL (≈ 22.1 µM)
[3]; [7]
  MIC: 25 µg/mL (≈ 22.1 µM)
[4]; [8]
  MIC: 50 µg/mL (≈ 44.1 µM)
[5]; [9]
  MIC: 25 µg/mL (≈ 22.1 µM)

## CCCCC/C=C/C=C/[C@@H](O)C/C=C/C=C/C(=O)O[C@@H]1[C@@H](O)[C@H](c2c(O)cc(O)cc2CO)O[C@H](CO)[C@H]1O[C@@H]1O[C@H](COC(=O)c2ccc(-c3ccc(CC)cc3)cc2)[C@H](O)[C@H](O)[C@H]1O[C@@H]1O[C@H](CO)[C@H](O)[C@H](O)[C@H]1O [Example 21]
[1]; [6]
  MIC: 0.39 µg/mL (≈ 0.361 µM)
[2]
  MIC: 0.78 µg/mL (≈ 0.721 µM)
[3]; [7]
  MIC: 0.2 µg/mL (≈ 0.185 µM)
[4]; [8]
  MIC: 0.78 µg/mL (≈ 0.721 µM)
[5]; [9]
  MIC: 0.78 µg/mL (≈ 0.721 µM)

## CCCCC/C=C/C=C/[C@@H](O)C/C=C/C=C/C(=O)O[C@@H]1[C@@H](O)[C@H](c2c(O)cc(O)cc2CO)O[C@H](CO)[C@H]1O[C@@H]1O[C@H](COC(=O)c2ccc(CCCC)cc2)[C@H](O)[C@H](O)[C@H]1O[C@@H]1O[C@H](CO)[C@H](O)[C@H](O)[C@H]1O [Example 15]
[1]; [6]
  MIC: 1.56 µg/mL (≈ 1.51 µM)
[2]
  MIC: 3.12 µg/mL (≈ 3.02 µM)
[3]; [7]
  MIC: 0.78 µg/mL (≈ 0.755 µM)
[4]; [8]
  MIC: 1.56 µg/mL (≈ 1.51 µM)
[5]; [9]
  MIC: 3.12 µg/mL (≈ 3.02 µM)

## CCCCC/C=C/C=C/[C@@H](O)C/C=C/C=C/C(=O)O[C@@H]1[C@@H](O)[C@H](c2c(O)cc(O)cc2CO)O[C@H](CO)[C@H]1O[C@@H]1O[C@H](COC(=O)c2cccc(-c3ccc(-c4ccccc4)cc3)c2)[C@H](O)[C@H](O)[C@H]1O[C@@H]1O[C@H](CO)[C@H](O)[C@H](O)[C@H]1O [Example 34]
[1]; [6]
  MIC: 3.12 µg/mL (≈ 2.76 µM)
[2]
  MIC: 6.25 µg/mL (≈ 5.53 µM)
[3]; [7]
  MIC: 3.12 µg/mL (≈ 2.76 µM)
[4]; [8]
  MIC: 6.25 µg/mL (≈ 5.53 µM)
[5]; [9]
  MIC: 6.25 µg/mL (≈ 5.53 µM)

## CCCCC/C=C/C=C/[C@@H](O)C/C=C/C=C/C(=O)O[C@@H]1[C@@H](O)[C@H](c2c(O)cc(O)cc2CO)O[C@H](CO)[C@H]1O[C@@H]1O[C@H](COC(=O)c2ccc(-c3ccc4ccccc4c3)cc2)[C@H](O)[C@H](O)[C@H]1O[C@@H]1O[C@H](CO)[C@H](O)[C@H](O)[C@H]1O [Example 29]
[1]; [6]
  MIC: 1.56 µg/mL (≈ 1.41 µM)
[2]
  MIC: 1.56 µg/mL (≈ 1.41 µM)
[3]; [7]
  MIC: 0.78 µg/mL (≈ 0.707 µM)
[4]; [8]
  MIC: 1.56 µg/mL (≈ 1.41 µM)
[5]; [9]
  MIC: 1.56 µg/mL (≈ 1.41 µM)

## CCCCC/C=C/C=C/[C@@H](O)C/C=C/C=C/C(=O)O[C@@H]1[C@@H](O)[C@H](c2c(O)cc(O)cc2CO)O[C@H](CO)[C@H]1O[C@@H]1O[C@H](COC(=O)c2ccccc2)[C@H](O)[C@H](O)[C@H]1O[C@@H]1O[C@H](CO)[C@H](O)[C@H](O)[C@H]1O [Example 14]
[1]; [6]
  MIC: 12.5 µg/mL (≈ 12.8 µM)
[2]
  MIC: 12.5 µg/mL (≈ 12.8 µM)
[3]; [7]
  MIC: 6.25 µg/mL (≈ 6.4 µM)
[4]; [8]
  MIC: 6.25 µg/mL (≈ 6.4 µM)
[5]; [9]
  MIC: 12.5 µg/mL (≈ 12.8 µM)

## CCCCC/C=C/C=C/[C@@H](O)C/C=C/C=C/C(=O)O[C@@H]1[C@@H](O)[C@H](c2c(O)cc(O)cc2CO)O[C@H](CO)[C@H]1O[C@@H]1O[C@H](COC(=O)c2ccc(OCCCCCCCC)cc2)[C@H](O)[C@H](O)[C@H]1O[C@@H]1O[C@H](CO)[C@H](O)[C@H](O)[C@H]1O [Example 18]
[1]; [6]
  MIC: 0.78 µg/mL (≈ 0.706 µM)
[2]
  MIC: 1.56 µg/mL (≈ 1.41 µM)
[3]; [7]
  MIC: 1.56 µg/mL (≈ 1.41 µM)
[4]; [8]
  MIC: 1.56 µg/mL (≈ 1.41 µM)
[5]; [9]
  MIC: 3.12 µg/mL (≈ 2.82 µM)

## CCCCC/C=C/C=C/[C@@H](O)C/C=C/C=C/C(=O)O[C@@H]1[C@@H](O)[C@H](c2c(O)cc(O)cc2CO)O[C@H](CO)[C@H]1O[C@@H]1O[C@H](COC(=O)c2cccc(-c3ccc(OC)cc3)c2)[C@H](O)[C@H](O)[C@H]1O[C@@H]1O[C@H](CO)[C@H](O)[C@H](O)[C@H]1O [Example 39]
[1]; [6]
  MIC: 3.12 µg/mL (≈ 2.88 µM)
[2]
  MIC: 1.56 µg/mL (≈ 1.44 µM)
[3]; [7]
  MIC: 0.78 µg/mL (≈ 0.72 µM)
[4]; [8]
  MIC: 1.56 µg/mL (≈ 1.44 µM)
[5]; [9]
  MIC: 1.56 µg/mL (≈ 1.44 µM)
